Reference: patent US11739162B2, “Side chain modified peptoids useful as structure-stabilizing coatings for biomaterials” (Brookhaven Science Associates, LLC, priority 2019, dated 2023)

Experiments:
deoxyribonuclease I (DN) = test: Nuclease degradation assays (AGE, TEM, DLS); conditions: DN 15 μg/mL, 30 min, 37° C., N/P 0.5
Method: The samples were incubated at 37° C. for 30 min at 650 rpm on a thermal cycler (Eppendorf) and characterized using AGE and negative-stained TEM imaging.

15-bp dsDNA = test: Real-time SYBR Green I (SG) fluorescence assay of duplex DNA (dsDNA); type: binding; conditions: dsDNA/peptoid complexes
Method: A15-bp dsDNA was designed with a sequence of 5′-[…]-3′ (SEQ ID NO: 124) with a complementary sequence of 5′-[…]-3′ (SEQ ID NO: 125). The dsDNA (500 μM) was formed in PBS (1×) buffer and cooled from 70° C. to room temperature over 11 h. Next, the dsDNA (100 nM) solution was mixed with different peptoid solutions at varied concentrations in PBS overnight at room temperature. Prior to measuring fluorescence, SG (1×) was added to the dsDNA/peptoid mixtures for 2 h at room temperature. The fluorescence signal was recorded from 37° C. to 85° C. at a step of 0.03° C./sec by LightCycler 480. The concentrations of only peptoids in solution were the same as those in the N/P of 8, which were 3.43 μM for PE1, PE3, PE4, PE5, and 1.85 μM for PE2, respectively.

[1] = system: octahedra-shaped DNA origamis (OCs); test: Negative-stained TEM imaging of peptoid-coated OCs; type: physicochemical; conditions: N/P 0.5, 0.25, 0.1; TAE 12.5 mM MgCl2
Method: Preparation of peptoid-coated OCs. The synthesized peptoids were dissolved in deionized water at a concentration of 10 mM and stored at 4° C.
Negative-stained TEM imaging. […] In brief, […] of the peptoid-coated OC (5-10 nM) solution was dropped on a carbon film for 1-3 min and the residual liquid was removed with a piece of filter paper. After that, the grid was washed with […] of deionized water followed by staining with […] of 2 wt % uranyl acetate for 15 sec. The excess liquid was removed with filter papers. TEM imaging was performed on a JEOL 1400 TEM with an acceleration voltage of 120 kV.

trypsin = test: Fluorescence assay for tryptic digestion of BSA; type: biochemical; conditions: trypsin 50 nM, 37° C.
Method: First, NHS-fluorescein (240 μM) and NHS-PEG-azide (60 μM) was mixed with BSA (10 μM) in PBS (1×) buffer for 3 h at room temperature. The solution was purified 8 times with PBS using a 50 kDa filter and centrifuged at 3000 rcf and at 4° C. Next, the DBCO-modified single-stranded DNA (ssHy, 5′-[…]/3DBCO/, 250 μM) (SEQ ID NO: 1) was mixed with the BSA solution (10 μM) overnight (˜12 h) at 4° C. The solution was purified 8 times with PBS using a 50 kDa filter and centrifuged at 3000 rcf at 4° C. Finally, the surface-modified BSA (200 nM) was added to the OCs (40 nM) and the solution was cooled down from 45° C. to room temperature over a time course of 60 h. The solution was purified 2 times with TAE (1×) buffer containing 12.5 mM MgCl2 using a 100 kDa filter and centrifuged at 400 rcf and at 4° C.
(1) The fluorescein-modified BSA (80 nM) solution without OCs was incubated at 37° C. in the presence or absence of trypsin (50 nM) overnight ˜12 h prior to fluorescence measurement. Fluorescence spectra were measured with excitation and emission wavelengths of 490 nm and 510-750 nm, respectively and a step size of 2 nm. […] The fluorescence kinetics were measured at λex and λem of 490 nm and 525 nm, respectively and time interval of 3 min. Fluorescence spectra were measured after 15 h at excitation and emission wavelengths of 490 nm and 510-800 nm, respectively and a step size of 2 nm.

| Compound | OC structure after incubation with DN (TEM) (deoxyribonuclease I (DN)) | relative performance in raising the Tm of the dsDNA (ranking) (15-bp dsDNA) | morphology / aggregation of peptoid-coated OCs (TEM) [1] | fluorescence enhancement of fluorescein labeled BSA in the presence of trypsin (trypsin) [%] |
| --- | --- | --- | --- | --- |
| COCCOCCOCCN(CC(N)=O)C(=O)CN(CCOC)C(=O)CN(CCOCCOCCOC)C(=O)CN(CCN)C(=O)CN(CCOCCOCCOC)C(=O)CN(CCOC)C(=O)CN(CCOCCOCCOC)C(=O)CN(CCN)C(=O)CN(CCOCCOCCOC)C(=O)CN(CCOC)C(=O)CN(CCOCCOCCOC)C(=O)CN(CCN)C(=O)CN(CCOCCOCCOC)C(=O)CN(CCOC)C(=O)CN(CCOCCOCCOC)C(=O)CN(CCN)C(=O)CN(CCOCCOCCOC)C(=O)CN(CCOC)C(=O)CN(CCOCCOCCOC)C(=O)CN(CCN)C(=O)CN(CCOCCOCCOC)C(=O)CN(CCOC)C(=O)CN(CCOCCOCCOC)C(=O)CNCCN [PE3, Nae6-Nte12 brush] | some extents of capability to preserve the origami structure | Tm (dsDNA/PE3)>Tm (dsDNA/PE5) | less aggregation than PE1 | – |
| COCCOCCOCCN(CC(N)=O)C(=O)CN(CCOCCOCCOC)C(=O)CN(CCOCCOCCOC)C(=O)CN(CCOCCOCCOC)C(=O)CN(CCOCCOCCOC)C(=O)CN(CCOCCOCCOC)C(=O)CN(CCN)C(=O)CN(CCN)C(=O)CN(CCN)C(=O)CN(CCN)C(=O)CN(CCN)C(=O)CNCCN [PE4, Nae6-Nte6 block] | some extents of capability to preserve the origami structure | Tm (dsDNA/PE2)>Tm (dsDNA/PE1)>Tm (dsDNA/PE4) | – | – |
| fluorescein labeled BSA: bovine serum albumin modified with fluorescein, trypsin substrate [reference compound] | – | – | – | 85 |
